From ChEMBL document CHEMBL1141004, “N-((8-hydroxy-5-substituted-quinolin-7-yl)(phenyl)methyl)-2-phenyloxy/amino-acetamide inhibitors of ADAMTS-5 (Aggrecanase-2)” (Bioorg Med Chem Lett, 2008)

Experiments:
[1] = molecular target: Cytochrome P450 3A4 (Homo sapiens, UniProt P08684); assay: Inhibition of CYP3A4 at 30 uM by FRET assay; assay type: ADME
[2] = molecular target: T1, A disintegrin and metalloproteinase with thrombospondin motifs 4 (Homo sapiens, UniProt O75173); assay: Inhibition of ADAMTS4 by FRET assay
T1 sequence (O75173 whole entry): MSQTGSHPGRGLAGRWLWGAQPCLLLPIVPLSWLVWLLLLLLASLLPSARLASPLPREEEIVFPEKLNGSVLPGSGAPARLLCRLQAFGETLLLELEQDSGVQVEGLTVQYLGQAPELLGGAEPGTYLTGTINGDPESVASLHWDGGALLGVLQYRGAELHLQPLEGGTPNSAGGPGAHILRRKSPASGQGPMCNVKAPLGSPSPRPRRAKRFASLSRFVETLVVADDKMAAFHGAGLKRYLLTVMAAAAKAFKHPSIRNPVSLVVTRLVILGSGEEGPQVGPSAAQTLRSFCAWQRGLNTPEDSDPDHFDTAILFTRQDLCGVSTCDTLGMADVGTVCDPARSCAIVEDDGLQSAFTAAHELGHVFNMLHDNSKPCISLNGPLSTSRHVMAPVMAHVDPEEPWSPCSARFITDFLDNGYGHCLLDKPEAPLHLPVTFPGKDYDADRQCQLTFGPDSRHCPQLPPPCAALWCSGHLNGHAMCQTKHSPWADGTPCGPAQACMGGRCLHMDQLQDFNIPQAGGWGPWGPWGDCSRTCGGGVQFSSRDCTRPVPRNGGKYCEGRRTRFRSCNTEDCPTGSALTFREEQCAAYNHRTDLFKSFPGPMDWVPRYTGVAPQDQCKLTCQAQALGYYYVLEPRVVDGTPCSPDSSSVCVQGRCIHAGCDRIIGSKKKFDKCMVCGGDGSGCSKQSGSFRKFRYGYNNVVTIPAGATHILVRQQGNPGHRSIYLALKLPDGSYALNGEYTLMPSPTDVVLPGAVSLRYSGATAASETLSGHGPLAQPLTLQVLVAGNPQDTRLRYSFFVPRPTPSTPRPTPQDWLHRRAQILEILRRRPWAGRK

[3] = Metabolic stability in rat liver microsomes assessed as half life; assay type: ADME, Microsome
[4] = molecular target: Macrophage metalloelastase (Homo sapiens) (UniProt P39900); assay: Inhibition of MMP12 at […] by FRET assay
Sequence of Macrophage metalloelastase (Homo sapiens) (P39900 106-470 limits assumed): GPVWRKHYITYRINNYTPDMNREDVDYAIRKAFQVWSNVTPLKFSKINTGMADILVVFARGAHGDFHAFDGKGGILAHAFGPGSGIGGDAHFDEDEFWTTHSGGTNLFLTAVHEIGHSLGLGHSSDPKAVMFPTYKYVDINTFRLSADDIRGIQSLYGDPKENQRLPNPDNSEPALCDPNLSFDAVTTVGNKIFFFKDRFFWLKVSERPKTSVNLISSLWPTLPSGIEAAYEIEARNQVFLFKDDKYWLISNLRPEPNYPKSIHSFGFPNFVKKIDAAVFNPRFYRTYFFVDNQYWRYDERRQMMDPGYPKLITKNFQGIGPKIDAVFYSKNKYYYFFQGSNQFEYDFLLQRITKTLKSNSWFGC

[5] = molecular target: Collagenase 3 (Homo sapiens, UniProt P45452); assay: Inhibition of MMP13 by FRET assay

Sequence of Cytochrome P450 3A4 (P08684 whole entry): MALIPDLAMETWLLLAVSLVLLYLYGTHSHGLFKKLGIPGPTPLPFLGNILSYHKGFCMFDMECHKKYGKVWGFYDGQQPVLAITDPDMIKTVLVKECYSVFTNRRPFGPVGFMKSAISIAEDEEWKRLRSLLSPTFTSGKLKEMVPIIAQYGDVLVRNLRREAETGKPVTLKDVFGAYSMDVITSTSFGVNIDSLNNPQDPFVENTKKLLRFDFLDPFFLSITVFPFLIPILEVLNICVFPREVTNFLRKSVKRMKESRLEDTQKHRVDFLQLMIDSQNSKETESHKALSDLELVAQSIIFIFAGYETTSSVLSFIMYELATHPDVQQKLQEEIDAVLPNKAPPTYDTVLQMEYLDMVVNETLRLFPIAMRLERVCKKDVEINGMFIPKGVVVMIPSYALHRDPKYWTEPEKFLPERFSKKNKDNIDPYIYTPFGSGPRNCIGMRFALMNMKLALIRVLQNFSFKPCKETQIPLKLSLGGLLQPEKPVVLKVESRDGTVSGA

| inhibition (INH) [1] | SMILES | also measured |
| --- | --- | --- |
| 20% | O=C(COc1cc(Cl)cc(Cl)c1)NC(c1cccc([N+](=O)[O-])c1)c1cc(Cl)c2cccnc2c1O (configuration not stated) |  |
| 12% | Cc1ccc(C(NC(=O)CNc2ccc(Cl)c(C)c2)c2cc(Cl)c3cccnc3c2O)cc1 (configuration not stated) |  |
| 30% | Cc1ccc(C(NC(=O)CN(C)Cc2ccccc2)c2cc(Cl)c3cccnc3c2O)cc1 (configuration not stated) | half-life [3]: 16 min |
| 74% | COc1ccc(OCC(=O)NC(c2ccc(OC)cc2)c2cc(Cl)c3cccnc3c2O)cc1 (configuration not stated) | IC50 [2]: > 50 µM; inhibition [4]: 37%; IC50 [5]: > 200 µM |
| 45% | Cc1ccc(C(NC(=O)COCc2ccccc2)c2cc(Cl)c3cccnc3c2O)cc1 (configuration not stated) |  |
| 21% | COc1ccc(C(NC(=O)COc2ccc(Oc3ccccc3)cc2)c2cc(Cl)c3cccnc3c2O)cc1 (configuration not stated) |  |
| 33% | Cc1cc(C(NC(=O)COc2ccccc2)c2cccc([N+](=O)[O-])c2)c(O)c2ncccc12 (configuration not stated) | half-life [3]: 6 min |
| 20% | CN(CC(=O)NC(c1cccc([N+](=O)[O-])c1)c1cc(Cl)c2cccnc2c1O)Cc1ccccc1 (configuration not stated) |  |
| 45% | Cc1ccc(C(NC(=O)COc2ccccc2)c2cc(Cl)c3cccnc3c2O)cc1 (configuration not stated) |  |
| 31% | CC(=O)Nc1ccc(OCC(=O)NC(c2cccc(F)c2)c2cc(Cl)c3cccnc3c2O)cc1 (configuration not stated) |  |
| 22% | O=C(COc1ccccc1)NC(c1ccccc1)c1cc(F)c2cccnc2c1O (configuration not stated) |  |
| 20% | O=C(COc1ccccc1)NC(c1ccccc1)c1cc([N+](=O)[O-])c2cccnc2c1O (configuration not stated) |  |
| 38% | O=C(COc1ccccc1)NC(c1ccccc1[N+](=O)[O-])c1cc(Cl)c2cccnc2c1O (configuration not stated) | half-life [3]: 5 min |
| 34% | CN(CC(=O)NC(c1ccccc1Cl)c1cc(Cl)c2cccnc2c1O)c1ccccc1 (configuration not stated) |  |
| 20% | Cc1ccc(C(NC(=O)CN(C)c2ccccc2)c2cc(Cl)c3cccnc3c2O)cc1 (configuration not stated) | half-life [3]: 6 min |
| 29% | Cc1ccc(C(NC(=O)CNCc2ccccc2)c2cc(Cl)c3cccnc3c2O)cc1 (configuration not stated) | half-life [3]: 10 min |
| 4% | CC(=O)Nc1ccc(OCC(=O)NC(c2ccccc2Cl)c2cc(Cl)c3cccnc3c2O)cc1 (configuration not stated) |  |
| 29% | Cc1ccc(C(NC(=O)CNc2ccc(C#N)cc2)c2cc(Cl)c3cccnc3c2O)cc1 (configuration not stated) |  |
| 38% | O=C(COc1ccccc1)NC(c1ccc(Cl)cc1)c1cc(Cl)c2cccnc2c1O (configuration not stated) |  |
| 16% | CN(CC(=O)NC(c1ccccc1Cl)c1cc(Cl)c2cccnc2c1O)Cc1ccccc1 (configuration not stated) | half-life [3]: 5 min |
| 14% | Cc1cc(NCC(=O)NC(c2cccc(F)c2)c2cc(Cl)c3cccnc3c2O)ccc1Cl (configuration not stated) |  |
| 37% | Cc1ccc(C(NC(=O)CNc2cccc(N(C)C)c2)c2cc(Cl)c3cccnc3c2O)cc1 (configuration not stated) |  |
| 32% | O=C(CNCc1ccccc1)NC(c1cccc(F)c1)c1cc(Cl)c2cccnc2c1O (configuration not stated) |  |
| 38% | CN(C)c1cccc(OCC(=O)NC(c2ccccc2Cl)c2cc(Cl)c3cccnc3c2O)c1 (configuration not stated) |  |
| 55% | Cc1cc(C(NC(=O)COc2ccccc2)c2ccccc2Cl)c(O)c2ncccc12 (configuration not stated) |  |
| 78% | COc1ccc(C(NC(=O)COc2ccc(C)cc2)c2cc(Cl)c3cccnc3c2O)cc1 (configuration not stated) |  |
| 33% | O=C(COc1ccccc1)NC(c1ccccc1Cl)c1cc(Br)c2cccnc2c1O (configuration not stated) |  |
| 2% | O=C(COc1ccc(Cl)cc1)NC(c1ccccc1)c1cc(Cl)c2cccnc2c1O (configuration not stated) |  |

Continued, compound first:

| SMILES | inhibition (INH) [1] | also measured |
| --- | --- | --- |
| COc1ccc(C(NC(=O)COc2cccc(N(C)C)c2)c2cc(Cl)c3cccnc3c2O)cc1 (configuration not stated) | 56% |  |
| O=C(COc1ccccc1)NC(c1cccc([N+](=O)[O-])c1)c1cc(Cl)c2cccnc2c1O (configuration not stated) | 26% | IC50 [2]: 1.9 µM; half-life [3]: 6 min; inhibition [4]: 45%; IC50 [5]: > 200 µM |
| O=C(COc1ccccc1)NC(c1ccccc1Cl)c1cc([N+](=O)[O-])c2cccnc2c1O (configuration not stated) | 35% |  |
| O=C(COc1ccccc1)NC(c1ccc([N+](=O)[O-])cc1)c1cc(Cl)c2cccnc2c1O (configuration not stated) | 13% |  |
| COc1ccc(C(NC(=O)COc2ccccc2)c2cc(Cl)c3cccnc3c2O)cc1 (configuration not stated) | 54% |  |
| O=C(COc1cccnc1)NC(c1cccc(F)c1)c1cc(Cl)c2cccnc2c1O (configuration not stated) | 35% |  |
| O=C(COc1ccccc1)NC(c1cccc(F)c1)c1cc(Cl)c2cccnc2c1O (configuration not stated) | 57% |  |
| O=C(COc1cccnc1)NC(c1cccc([N+](=O)[O-])c1)c1cc(Cl)c2cccnc2c1O (configuration not stated) | 67% |  |
| CC(=O)Nc1ccc(NCC(=O)NC(c2cccc([N+](=O)[O-])c2)c2cc(Cl)c3cccnc3c2O)cc1 (configuration not stated) | 8% | half-life [3]: 30 min |
| Cc1cc(NCC(=O)NC(c2ccccc2Cl)c2cc(Cl)c3cccnc3c2O)ccc1Cl (configuration not stated) | 11% | half-life [3]: 8 min |
| CN(CC(=O)NC(c1cccc(F)c1)c1cc(Cl)c2cccnc2c1O)Cc1ccccc1 (configuration not stated) | 32% | half-life [3]: 16 min |
| O=C(COc1ccccc1)NC(c1ccccc1F)c1cc(Cl)c2cccnc2c1O (configuration not stated) | 24% |  |
| O=C(COc1ccccc1)NC(c1ccccc1)c1cc(Cl)c2cccnc2c1O (configuration not stated) | 5% |  |
| O=C(COCc1ccccc1)NC(c1cccc(F)c1)c1cc(Cl)c2cccnc2c1O (configuration not stated) | 46% | half-life [3]: 24 min |
| CC(=O)c1ccc(NCC(=O)NC(c2ccc(C)cc2)c2cc(Cl)c3cccnc3c2O)cc1 (configuration not stated) | 45% | half-life [3]: 4 min |
| COc1ccc(C(NC(=O)COc2cccnc2)c2cc(Cl)c3cccnc3c2O)cc1 (configuration not stated) | 33% | half-life [3]: 16 min |

| SMILES | inhibition (INH) [1] | also measured |
| --- | --- | --- |
| Cc1ccccc1C(NC(=O)COc1ccccc1)c1cc(Cl)c2cccnc2c1O (configuration not stated) | 10% |  |
| O=C(COc1ccccc1)NC(c1cccc([N+](=O)[O-])c1)c1cc(Br)c2cccnc2c1O (configuration not stated) | 38% |  |
| CC(=O)c1ccc(NCC(=O)NC(c2cccc([N+](=O)[O-])c2)c2cc(Cl)c3cccnc3c2O)cc1 (configuration not stated) | 27% |  |
| Cc1cc(OCC(=O)NC(c2ccccc2Cl)c2cc(Cl)c3cccnc3c2O)ccc1Cl (configuration not stated) | 30% |  |
| Cc1ccc(OCC(=O)NC(c2ccccc2)c2cc(Cl)c3cccnc3c2O)cc1 (configuration not stated) | 69% |  |
| O=C(CNCc1ccccc1)NC(c1ccccc1Cl)c1cc(Cl)c2cccnc2c1O (configuration not stated) | 36% |  |
| Cc1cc(NCC(=O)NC(c2cccc([N+](=O)[O-])c2)c2cc(Cl)c3cccnc3c2O)ccc1Cl (configuration not stated) | 17% |  |
| COc1ccc(C(NC(=O)COc2ccc(NC(C)=O)cc2)c2cc(Cl)c3cccnc3c2O)cc1 (configuration not stated) | 37% |  |
| CC(=O)c1ccc(OCC(=O)NC(c2cccc([N+](=O)[O-])c2)c2cc(Cl)c3cccnc3c2O)cc1 (configuration not stated) | 18% |  |
| O=C(COc1ccccc1)NC(c1ccccc1)c1ccc2cccnc2c1O (configuration not stated) | 56% |  |
| CC(C)(C)c1ccc(OCC(=O)NC(c2ccccc2Cl)c2cc(Cl)c3cccnc3c2O)cc1 (configuration not stated) | 10% |  |
| CN(CC(=O)NC(c1cccc(F)c1)c1cc(Cl)c2cccnc2c1O)c1ccccc1 (configuration not stated) | 41% |  |
| N#Cc1ccccc1C(NC(=O)COc1ccccc1)c1cc(Cl)c2cccnc2c1O (configuration not stated) | 26% |  |
| CN(C)c1cccc(OCC(=O)NC(c2cccc(F)c2)c2cc(Cl)c3cccnc3c2O)c1 (configuration not stated) | 53% |  |
| O=C(COc1ccccc1)NC(c1ccccc1C(F)(F)F)c1cc(Cl)c2cccnc2c1O (configuration not stated) | 37% |  |
| O=C(COc1ccccc1)NC(c1ccccc1Cl)c1cc(Cl)c2cccnc2c1O (configuration not stated) | 43% | IC50 [2]: 2.4 µM; inhibition [4]: 50%; IC50 [5]: > 67 µM |
